# BindingDB's records for patent US10844032 (Vanderbilt University, 2020)
# Molecular target: T1, Induced myeloid leukemia cell differentiation protein Mcl-1 [172-327] (Homo sapiens, UniProt Q07820)
# T1 construct: 172-327
# Test: Binding Assay
# T1 sequence (Q07820 172-327): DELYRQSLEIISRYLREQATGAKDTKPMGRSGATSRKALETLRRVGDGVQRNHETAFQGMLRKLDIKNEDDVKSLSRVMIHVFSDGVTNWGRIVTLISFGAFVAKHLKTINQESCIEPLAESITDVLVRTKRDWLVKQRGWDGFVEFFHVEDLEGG
compound,measurement,value
"Cc1cc(OCCCc2c(C(=O)NS(=O)(=O)c3ccccc3)[nH]c3c(-c4c(COc5ccccn5)nn(C)c4C)cccc23)cc(C)c1Cl [US10844032, Example 306]",Ki,< 100 nM
"Cc1cc(OCCCc2c(C(=O)NS(=O)(=O)c3ccccc3)[nH]c3c(-c4c(COc5cccnc5)nn(C)c4C)cccc23)cc(C)c1Cl [US10844032, Example 307]",Ki,< 100 nM
